Data taken from patent EP4782453A1 (Beyang Therapeutics Co., Ltd., priority 2023, dated 2025).
Like-named read-outs stand apart in the source and are kept apart here.

Key:
[1] = test system: MV-4-11 (carrying MLL-AF4); experiment: Inhibition of proliferation of human tumor cells (Alamar Blue, 7 days), MV-4-11; type: cell-based; conditions: Homo sapiens, MV4-11, 168 h, MV-4-11 cells (carrying MLL-AF4), method calls the value GI50
Text: Experimental Example 2: Evaluation of Inhibitory Activity of Compounds Against Proliferation of Human Tumor Cells
• Human acute lymphoblastic leukemia cells MV-4-11, purchased from American Type Culture Collection, Catalog Number: CRL-9591; • Human acute myeloid leukemia cells MOLM-13, purchased from COBIOER BIOSCIENCES CO., LTD, Catalog Number: CBP60678; • Human acute myeloid leukemia cells KG-1a, purchased from American Type Culture Collection, Catalog Number: CCL-246.1; • Inverted Microscope, purchased from Olympus Tokyo; • Countess™ Automated Cell Counter, purchased from Invitrogen, Model: C10281; and • Multilabel Reader, purchased from Bio-Tek, Model: Synergy HT.
MV-4-11 cells were cultured in an IMDM medium containing 10% fetal bovine serum, KG-a cells were cultured in an IMDM medium containing 20% fetal bovine serum, or MOLM-13 cells were cultured in an RPMI-1640 medium containing 20% fetal bovine serum, each supplemented with 100 U·mL^-1 penicillin and 100 µg·mL^-1 streptomycin. These cells were cultured at 37°C with 5% CO2. The suspensions of individual cell lines were prepared in their respective media and seeded into 96-well plates at a density of 4,000 cells/well for MV-4-11 and MOLM-13 cells, or 3,000 cells/well for KG-1a cells. On the day of the experiment, a compound stock solution was diluted in a 3-fold or 4-fold gradient using DMSO. Each gradient-diluted stock solution was then further diluted 250-fold with a complete medium to prepare a series of working solutions at different concentrations. Subsequently, 100 µL of working solution (containing a 2-fold concentration series of the test compound) was added to each well, with duplicate wells set up for each concentration.
Seven days after compound addition (on Day 7), an Alamar Blue assay reagent (MCE, HY-111391 / CS-0040317) was added to measure the fluorescence intensity in each well. Wells containing the cells in the growth medium supplemented with 0.1% DMSO (Day 7) served as high-read control wells. The readouts from the wells containing the cells in the growth medium supplemented with 0.1% DMSO on the day of compound addition (Day 0) served as low-reading control well. GraphPad Prism software was used to calculate the concentration required to inhibit 50% of cell proliferation (GI50), which serves as a cell proliferation inhibition activity index.

[2] = test system: MOLM-13 (carrying MLL-AF9); experiment: Inhibition of proliferation of human tumor cells (Alamar Blue, 7 days), MOLM-13; type: cell-based; conditions: MOLM-13 cells (carrying MLL-AF9), method calls the value GI50
In short: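 Suspension cells were plated, dosed the same day with a graded compound series, and incubated seven days at 37°C under 5% CO2. Growth was then measured by Alamar Blue fluorescence, and the concentration halving proliferation (GI50) was calculated relative to Day 0 and Day 7 vehicle controls.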

Menin-MLL = target: T1, Menin-MLL (Homo sapiens, UniProt O00255); experiment: Inhibitory activity against Menin-MLL binding (fluorescence polarization); conditions: 150 nM His-Menin, 15 nM FITC-MLL, 25°C for 60 min
T1 construct: His-Menin (M1-L615 end); purchased BIORTUS BP9210
T1 sequence (O00255 1-615 isoform O00255-1): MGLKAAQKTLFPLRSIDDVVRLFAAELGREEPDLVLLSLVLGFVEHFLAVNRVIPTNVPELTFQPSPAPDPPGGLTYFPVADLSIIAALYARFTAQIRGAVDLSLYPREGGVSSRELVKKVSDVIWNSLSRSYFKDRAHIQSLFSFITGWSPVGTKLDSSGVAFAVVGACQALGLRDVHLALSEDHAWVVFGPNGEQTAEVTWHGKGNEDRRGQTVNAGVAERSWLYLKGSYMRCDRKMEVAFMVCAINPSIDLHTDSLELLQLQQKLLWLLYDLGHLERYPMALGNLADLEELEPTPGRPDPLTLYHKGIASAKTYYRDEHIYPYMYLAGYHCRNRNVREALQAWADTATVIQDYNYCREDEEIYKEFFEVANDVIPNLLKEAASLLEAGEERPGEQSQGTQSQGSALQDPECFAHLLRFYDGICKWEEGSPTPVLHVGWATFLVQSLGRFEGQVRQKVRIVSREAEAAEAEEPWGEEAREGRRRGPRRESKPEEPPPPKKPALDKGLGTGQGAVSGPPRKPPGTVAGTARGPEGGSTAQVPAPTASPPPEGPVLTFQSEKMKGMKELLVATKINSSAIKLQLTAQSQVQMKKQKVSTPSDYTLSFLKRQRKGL
In short: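 Fluorescence polarization competition: compound and 150 nM His-tagged menin (residues M1-L615) sit 15 min at 25 °C in pH 7.5 HEPES buffer with NaCl, DTT and BSA; 15 nM FITC-labelled MLL peptide then binds for 60 min. IC50 fitted sigmoidally from mP values, duplicate wells.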

[3] = fluorescence polarization, read-out: Menin-MLL IC50

| Structure (SMILES) | IC50 [1] | IC50 ([2]; Homo sapiens, 168 h) | IC50 (Menin-MLL; [3]) | IC50 [2] | IC50 (Menin-MLL; Menin-MLL IC50, fluorescence polarization) |
| --- | --- | --- | --- | --- | --- |
| CO[C@H]1CCN(CCC[C@H](C(C)C)N2CC(c3cc(-c4ccc(F)cc4C(=O)N4CCOC[C@H]4C)c4cnn(C)c4c3)C2)C1 [Example 184-2] | 6.3 nM | 34 nM | 13 nM |  |  |
| CCNC(=O)N1CCC([C@H](C)N2CC(c3cc(-c4ccc(F)cc4C(=O)N4CCOC[C@H]4C)c4c(F)nc(C)n4c3)C2)CC1 [Example 279] | 3.3 nM | 7.4 nM | 6 nM |  |  |
| CNCCCC(C(C)C)N1CC(c2cc(-c3ccc(F)cc3C(=O)N(CC(F)F)C(C)C)c3cnccn23)C1 (stereo not drawn) [Example 146, N-(2,2-difluoroethyl)-5-fluoro-2-(6-{1-[2-methyl-6-(methylamino)hexan-3-yl]azacyclobutan-3-yl}pyrrolo[1,2-a]pyrazin-8-yl)-N-(isopropyl)benzamide] | 89 nM |  | 46 nM |  |  |
| CCN(C(=O)c1cc(F)ccc1-c1cc(C2CN([C@H](CCCN3CCN(CCO)CC34COC4)C(C)C)C2)cn2c(C)ncc12)C(C)C [Example 482, N-ethyl-5-fluoro-2-(6-{1-[(3R)-6-[8-(2-hydroxyethyl)-2-oxa-5,8-diazaspiro[3.5]non-5-yl]-2-methylhexan-3-yl]azacyclobutan-3-yl}-3-methylimidazo[1,5-a]pyridin-8-yl)-N-(isopropyl)benzamide] |  | 36 nM | 2.4 nM |  |  |
| CCN(C(=O)c1cc(F)ccc1-c1cc(C2CN([C@H](CC[C@@H]3COCCN3)C(C)C)C2)cn2c(C)ncc12)C(C)C [Example 449-1, N-ethyl-5-fluoro-2-(3-methyl-6-{1-[(3R)-4-methyl-1-[(3R)-morpholin-3-yl]pentan-3-yl]azacyclobutan-3-yl}imidazo[1,5-a]pyridin-8-yl)-N-(isopropyl)benzamide] |  | 6.1 nM | 2.6 nM |  |  |
| CCN(C(=O)c1cc(F)ccc1-c1cc(C2CN([C@H](CCCN3CCN(C(CO)CO)CC3)C(C)C)C2)cc2c1cnn2C)C(C)C [Example 433, 2-(6-{1-[(3R)-6-[4-(1,3-dihydroxylpropan-2-yl)piperazin-1-yl]-2-methylhexan-3-yl]azacyclobutan-3-yl}-1-methyl-1H-indazol-4-yl)N-ethyl-5-fluoro-N-(isopropyl)benzamide] |  | 18 nM | 3.3 nM |  |  |
| Cc1ncc2c(-c3ccc(F)cc3C(=O)N(CC(F)F)C(C)C)cc(C3CN([C@H](CCCN4CCN(CCO)CC4)C(C)C)C3)cn12 [Example 459-1, N-(2,2-difluoroethyl)-5-fluoro-2-(6-{1-[(3R)-6-[4-(2-hydroxylethyl)piperazin-1-yl]-2-methylhexan-3-yl]azacyclobutan-3-yl}-3-methyl-imidazo[1,5-a]pyridin-8-yl)-N-(isopropyl)benzamide] |  | 4.7 nM | 1.9 nM |  |  |
| Cc1nc(F)c2c(-c3ccc(F)cc3C(=O)N3CCOC[C@H]3C)cc(C3CN([C@H](CCCN4CCN(S(C)(=O)=O)CC4)C(C)C)C3)cn12 [Example 365] |  | 14 nM | 8.5 nM |  |  |
| Cc1ncc2c(-c3ccc(F)cc3C(=O)N(C(C)C)C(C)C)cc(C3CN([C@H](CCCN4CCN(CCO)CC4)C(C)C)C3)cn12 [Example 463, 5-fluoro-2-(6-{1-[(3R)-6-[4-(2-hydroxylethyl)piperazin-1-yl]-2-methylhexan-3-yl]azacyclobutan-3-yl}-3-methyl-imidazo[1,5-a]pyridin-8-yl)-N,N-di(isopropyl)benzamide] |  | 4.3 nM | 2.3 nM |  |  |
| CCN(C(=O)c1cc(F)ccc1-c1cc(CC2CN([C@H](CCCN3CCN(CCO)CC3)C(C)C)C2)n2c(C)cncc12)C(C)C [Example 470, N-ethyl-5-fluoro-2-[6-({1-[(3R)-6-[4-(2-hydroxylethyl)piperazin-1-yl]-2-methylhexan-3-yl]azacyclobutan-3-yl}methyl)-4-methylpyrrolo[1,2-a]pyrazin-8-yl]-N-(isopropyl)benzamide] |  | 3.8 nM | 0.9 nM |  |  |
| COC[C@H]1CN(CCC[C@H](C(C)C)N2CC(c3cc(-c4ccc(F)cc4C(=O)N(C(C)C)C(C)C)c4cnc(C)n4c3)C2)CCN1 [Example 504-2, 5-fluoro-2-(6-{1-[(3R)-6-[(3R)-3-(methoxymethyl)piperazin-1-yl]-2-methylhexan-3-yl]azacyclobutan-3-yl}-3-methylimidazo[1,5-a]pyridin-8-yl)-N,N-di(isopropyl)benzamide] |  | 13 nM | 1.2 nM |  |  |
| CCN(C(=O)c1cc(F)ccc1-c1cc(C2CN(C(CCCN3CCNC(CC#N)C3)C(C)C)C2)cn2c(C)ncc12)C(C)C (stereo not drawn) [Example 499] |  |  |  | 29 nM | 2.1 nM |
| CCN(C(=O)c1cc(F)ccc1-c1cc(C2CN([C@H](CCCN3C4CC3CN(C(C)=O)C4)C(C)C)C2)cn2c(C)ncc12)C(C)C [Example 387] |  | 8.9 nM | 2.5 nM |  |  |
| CCN(C(=O)c1cc(F)ccc1-c1cc(C2CN(C(CC3COCCO3)C(C)C)C2)cn2c(C)ncc12)C(C)C (stereo not drawn) [Example 445, 2-(6-{1-[1-(1,4-dioxane-2-yl)-3-methylbutan-2-yl]azacyclobutan-3-yl}-3-methylimidazo[1,5-a]pyridin-8-yl)-N-ethyl-5-fluoro-N-(isopropyl)benzamide] |  | 68 nM | 20 nM |  |  |
| CCN(C(=O)c1cc(F)ccc1-c1cc(C2CN([C@@H](CN3CCN(C)CC3)C(C)C)C2)cn2c(C)ncc12)C(C)C [Example 403-2, N-ethyl-5-fluoro-2-(3-methyl-6-{1-[(2R)-3-methyl-1-(4-methylpiperazin-1-yl)butan-2-yl]azacyclobutan-3-yl}imidazo[1,5-a]pyridin-8-yl)-N-(isopropyl)benzamide] |  | 38 nM | 10 nM |  |  |
| CCN(C(=O)c1cc(F)ccc1-c1cc(C2CN([C@H](CCCN3CCOC[C@@H]3CO)C(C)C)C2)cn2c(C)ncc12)C(C)C [Example 452] |  | 39 nM | 5.3 nM |  |  |
| Cc1nc(F)c2c(-c3ccc(F)cc3C(=O)N3CCOC[C@H]3C)cc(C3CN(C(CC[C@H]4COCCN4)C(C)C)C3)cn12 (stereo partly drawn) [Example 373, (3R)-4-{5-fluoro-2-[1-fluoro-3-methyl-6-(1-{4-methyl-1-[(3S)-morpholin-3-yl]pentan-3-yl}azacyclobutan-3-yl)imidazo[1,5-a]pyridin-8-yl]benzoyl}-3-methylmorpholine] |  | 6 nM | 6.4 nM |  |  |
| CCN1CCN(CCC[C@H](C(C)C)N2CC(c3cc(-c4ccc(F)cc4C(=O)N(CC)C(C)C)c4cnc(C)n4c3)C2)CC1 [Example 377] |  | 1.7 nM | 2 nM |  |  |
| CCC(=O)NC1CCN(CCC[C@H](C(C)C)N2CC(c3cc(-c4ccc(F)cc4C(=O)N(CC)C(C)C)c4cnc(C)n4c3)C2)CC1 [Example 425] |  | 9.9 nM | 2.7 nM |  |  |
| CCN(C(=O)c1cc(F)ccc1-c1cc(C2CN([C@H](CCCN3CC4(C3)CN(C(C)=O)C4)C(C)C)C2)cn2c(C)ncc12)C(C)C [Example 393] |  | 16 nM | 2.2 nM |  |  |
